Results from patent publication US10508105B2, “Indazole compounds as mGluR4 allosteric potentiators, compositions, and methods of treating neurological dysfunction” (Vanderbilt University, priority 2017, dated 2019).
Read-outs that look alike come from different tables or passages of the source.

Tests used:
[1] = molecular target: human mGlu4 (Homo sapiens (Human), UniProt Q14833); assay: mGlu4 PAM assay in human mGlu4/Gqi5 cells with ~EC20 glutamate (Hamamatsu FDSS); format: cell-based; conditions: ~EC20 concentration of glutamate
Procedure: The disclosed compounds and compositions can be evaluated for their ability to act as a potentiatior of metabotropic glutamate receptor activity, in particular mGluR4 activity, by any suitable known methodology known in the art. For example, Chinese Hamster Ovary (CHO) cells transfected with human mGluR4 or HEK cells co-transfected with rat mGluR4 and the G-protein regulated Inwardly Rectifying Potassium channel (GIRK) were plated in clear bottom assay plates for assay in a Hamamatsu FDSS Fluorometric Plate Reader. The cells were loaded with either a Ca2+-sensitive fluorescent dye or the thallium responsive dye and the plates were washed and placed into a suitable kinetic plate reader. For human mGluR4 assays, a fluorescence baseline was established for 3-5 seconds, the disclosed compounds were then added to the cells, and the response in cells was measured. Approximately two and a half minutes later, a concentration of mGluR4 orthosteric agonist (e.g. glutamate, L-AP4, or L-SOP) eliciting approximately 20% (EC20) of the maximal agonist response was added to the cells, and the response was measured. Two minutes later, a concentration of mGluR4 agonist (e.g. glutamate, L-AP4, or L-SOP) eliciting 80% (EC80) of the maximal agonist response was added to the cells, and the response was measured. For rat mGluR4/GIRK experiments, a baseline was established for approximately five seconds, disclosed compounds were added, and either an EC20 or EC80 concentration of agonist was added approximately two and one half minutes later.
The above described assay operated in two modes. In the first mode, a range of concentrations of the disclosed compounds are added to cells, followed by a single fixed concentration of agonist. If the compound acts as a potentiatior, an EC50 value for potentiation and a maximum extent of potentiation by the compound at this concentration of agonist is determined by non-linear curve fitting. If the compound acts as an antagonist, an IC50 value is determined by non-linear curve fitting. In the second mode, several fixed concentrations of the disclosed compounds are added to various wells on a plate, followed by a range in concentrations of agonist for each concentration of disclosed compound. The EC50 values for the agonist at each concentration of compound are determined by non-linear curve fitting. A decrease in the EC50 value of the agonist with increasing concentrations of the sample compound (a leftward shift of the agonist concentration-response curve) is an indication of the degree of mGluR4 potentiation at a given concentration of the sample compound. A decrease in the maximal response of the agonist with increasing concentrations of the sample compounds, with or without a rightward shift in agonist potency, is an indication of the degree of antagonism at mGluR4. The second mode also indicates whether the sample compounds also affect the maximum response to mGluR4 to agonists.

[2] = Brain-Plasma Kp; format: in vivo; conditions: rat, brain and plasma

Chain of human mGlu4 (Q14833 33-912): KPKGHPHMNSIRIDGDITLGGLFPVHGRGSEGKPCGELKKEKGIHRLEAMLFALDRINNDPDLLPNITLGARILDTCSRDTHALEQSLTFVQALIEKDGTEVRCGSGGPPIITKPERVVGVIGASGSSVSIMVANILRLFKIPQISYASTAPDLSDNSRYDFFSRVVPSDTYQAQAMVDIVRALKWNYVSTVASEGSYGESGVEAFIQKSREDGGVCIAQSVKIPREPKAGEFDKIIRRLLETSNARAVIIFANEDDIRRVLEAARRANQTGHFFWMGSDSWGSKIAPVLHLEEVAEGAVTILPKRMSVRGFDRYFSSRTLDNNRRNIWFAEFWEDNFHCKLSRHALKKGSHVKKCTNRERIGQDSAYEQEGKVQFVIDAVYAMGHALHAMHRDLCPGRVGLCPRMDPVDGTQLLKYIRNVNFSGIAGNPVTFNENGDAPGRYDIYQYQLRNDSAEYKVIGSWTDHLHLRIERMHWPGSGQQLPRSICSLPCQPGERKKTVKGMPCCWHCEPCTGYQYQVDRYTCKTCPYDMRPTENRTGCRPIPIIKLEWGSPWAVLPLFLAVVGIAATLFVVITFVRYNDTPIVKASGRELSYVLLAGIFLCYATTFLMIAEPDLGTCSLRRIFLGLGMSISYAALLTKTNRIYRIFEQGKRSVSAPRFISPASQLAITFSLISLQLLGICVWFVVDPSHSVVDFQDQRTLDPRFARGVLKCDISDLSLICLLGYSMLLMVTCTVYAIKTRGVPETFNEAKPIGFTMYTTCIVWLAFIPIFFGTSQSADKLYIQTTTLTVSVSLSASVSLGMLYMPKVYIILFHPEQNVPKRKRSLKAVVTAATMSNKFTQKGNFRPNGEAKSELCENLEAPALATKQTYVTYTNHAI

Row | SMILES | EC50 ([1]; read-out: mGlu4 PAM EC50) [µM] | EC50 ([1]; read-out: hmGluR4 PAM EC50) [µM] | Kp [2]
1 | Cn1nc(OCC2CCOCC2)c2ccc(Nc3n[nH]c4ncccc34)cc21 [Compound 52] | 0.157 |  | 
2 | [2H]C([2H])(C)Oc1nn(C)c2cc(Nc3n[nH]c4cccnc34)ccc12 [Compound 7] | 0.356 |  | 
3 | Cn1nc(OC[C@H]2CCOC2)c2ccc(NC(=O)c3ncccc3N)cc21 [drawing 245] |  | 0.0242 | 2.9
4 | Cn1nc(OCC2CCOC(C)(C)C2)c2ccc(NC(=O)c3ccccn3)cc21 (stereo not drawn) [Compound 104] | 0.0588 |  | 
5 | CC1CC(Oc2nn(C)c3cc(NC(=O)c4ccccn4)ccc23)CCO1 (stereo not drawn) [Compound 73] | 0.398 |  | 
6 | Cn1nc(OC2CCOCC2)c2ccc(Nc3n[nH]c4cccnc34)cc21 [Compound 20] | 0.0454 |  | 
7 | Cn1nc(OCC2CCOCC2)c2ncc(NC(=O)c3ccccn3)cc21 [Compound 57] | 0.255 |  | 
8 | CC1CC(Oc2nn(C)c3cc(NC(=O)c4ncccc4O)ccc23)CCO1 (stereo not drawn) [Compound 75] | 0.431 |  | 
9 | O=C(Nc1ccc2c(OC[C@H]3CCOC3)n[nH]c2c1)c1ccccn1 |  | 0.228 | 1.42
10 | Cn1nc(OCC2CC2)c2ccc(Nc3n[nH]c4cccnc34)cc21 [Compound 5] | 0.164 |  | 
11 | CC1CC(Oc2nn(C)c3cc(Nc4n[nH]c5cccnc45)ccc23)CCO1 (stereo not drawn) [Compound 65] | 0.134 |  | 
12 | Cn1nc(C(=O)NC2CCOC2)c2ccc(NC(=O)c3ncccc3N)cc21 (stereo not drawn) [Compound 111] | 0.421 |  | 
13 | Cn1nc(OC[C@H]2CCOC2)c2ncc(NC(=O)c3ncccc3N)cc21 [drawing 247] |  | 0.166 | 1.83
14 | COCCOc1nn(C)c2cc(Nc3n[nH]c4cccnc34)ccc12 [Compound 23] | 0.38 |  | 
15 | Cn1nc(OC2CC3CCC2O3)c2ccc(Nc3n[nH]c4ncccc34)cc21 (stereo not drawn) [Compound 38] | 0.601 |  | 
16 | Cn1nc(OC2CC3CCC2O3)c2ccc(Nc3n[nH]c4cccnc34)cc21 (stereo not drawn) [Compound 37] | 0.306 |  | 
17 | Cn1nc(OC[C@H]2CCOC2)c2ccc(NC(=O)c3ncccc3N)cc21 [Compound 80] | 0.0369 |  | 
18 | Cn1nc(OCC2CCOC(C)(C)C2)c2ccc(NC(=O)c3ccc(F)cn3)cc21 (stereo not drawn) [Compound 106] | 0.277 |  | 
19 | Cn1nc(OCC2CCOC2)c2ccc(NC(=O)c3ncccc3N)cc21 (stereo not drawn) [Compound 115] | 0.0754 |  | 
20 | Cn1nc(OCC2CCOCC2)c2ccc(NC(=O)c3ncccc3N)cc21 [Compound 117] | 0.0877 |  | 
21 | Cn1nc(OCC2CCOC2)c2ccc(NC(=O)c3cccc(F)n3)cc21 (stereo not drawn) [drawing 251] |  | 0.266 | 3.35
22 | Cn1nc(OCC2CCCOC2)c2ccc(Nc3n[nH]c4cccnc34)cc21 (stereo not drawn) [Compound 88] | 0.0638 |  | 
23 | Cc1ccc(C(=O)Nc2ccc3c(OCC4CCOC4)nn(C)c3c2)nc1 (stereo not drawn) [Compound 90] | 0.574 |  | 
24 | Cn1nc(OCC2CCOCC2)c2ccc(NC(=O)c3ccccn3)cc21 [Compound 116] | 0.063 |  | 
25 | Cn1nc(OCC2CCOC2)c2ncc(NC(=O)c3ncccc3N)cc21 (stereo not drawn) [Compound 56] | 0.0868 |  | 
26 | CC1CC(COc2nn(C)c3cc(NC(=O)c4ccc(F)cn4)ccc23)CC(C)O1 (stereo not drawn) [Compound 109] | 0.0836 |  | 
